Results on 2 compounds are retold here after patent EP2123641A1, “CRYSTAL, AMORPHOUS FORM AND SALT OF METHYL N-Ý3-(6,7-DIMETHOXY- 2-METHYLAMINOQUINAZOLIN-4-YL)PHENYL¨[…] ACID” (priority 2007, dated 2008).

Among the test systems are CYP1A1; CYP1A2; CYP3A4.
What all share (conditions): human, 2880 min

SMILES strings stand for the structures. Read-outs that look alike come from different tables or passages of the source.

Protocol for CYP1A1: Cryopreserved human hepatocytes (XenoTeek) were rapidly thawed at 37°C, and viable cells were obtained using Hepatocytes Isolation Kit (Nosan Corporation). […] Then, the medium was replaced with Hepato-STIM (registered trade mark: BD Biosciences) (+EGF, PSG, -FBS), and the cells were further cultured at 37°C in 5% CO2 for 24 hours. […] The culture medium containing test compound, β-NF or Rif was replaced every 24 hours. […] The levels of mRNA for CYP1A1 and GAPDH were quantified using SYBR Green PCR Core Reagents Kit (Applied Biosystems), and those for CYP1A2 and that of CYP3A4 were measured using Taqman PCR Core Reagents Kit (Applied Biosystems) and ABI Prism 7900 Sequence Detection System (Applied Biosystems).
Protocol for CYP1A2: (§1) Cryopreserved human hepatocytes (XenoTeek) were rapidly thawed at 37°C, and viable cells were obtained using Hepatocytes Isolation Kit (Nosan Corporation). After cells prepared were diluted with ice cold William's Medium E (10% FBS, +PSG) to give a concentration of 5 x 10^5 viable cells/mL, the cells were seeded onto a 48-well collagen-coated plate (BD Biosciences) at a concentration of 1 x 10^5 cells/cm^2 and cultured at 37°C in 5% CO2 for 24 hours. Then, the medium was replaced with Hepato-STIM (registered trade mark: BD Biosciences) (+EGF, PSG, -FBS), and the cells were further cultured at 37°C in 5% CO2 for 24 hours. […] The culture medium containing test compound, β-NF or Rif was replaced every 24 hours. Test compound, β-NF and Rif were each dissolved in dimethyl sulfoxide (DMSO: Wako Pure Chemical Industries, Ltd.), and culture medium containing test compound (final concentrations; 1, 3 and 10µM), β-NF (final concentration; 10µM) or Rif (final concentration; 10µM) was prepared by adding them to Hepato-STIM(+EGF, PSG, -FBS), respectively. […] The levels of mRNA for CYP1A1 and GAPDH were quantified using SYBR Green PCR Core Reagents Kit (Applied Biosystems), and those for CYP1A2 and that of CYP3A4 were measured using Taqman PCR Core Reagents Kit (Applied Biosystems) and ABI Prism 7900 Sequence Detection System (Applied Biosystems).
(§2) The ability of a test compound to induce CYP1A1 was calculated as follows: Ability of a test compound to induce CYP1A1 (%) = {[(amount of mRNA of CYP1A1 in test compound treated cells)/(amount of mRNA of GAPDH in test compound treated cells)]/[(amount of mRNA of CYP1A1 in control cells)/(amount of mRNA of GAPDH in control cells)] - 1}/{[(amount of mRNA of CYP1A1 in positive control treated cells)/(amount of mRNA of GAPDH in positive control treated cells)]/[(amount of mRNA of CYP1A1 in control cells)/(amount of mRNA of GAPDH in control cells)] -1} x 100 The ability to induce CYP1A2 or CYP3A4 was calculated in the same manner described above.
Protocol for CYP3A4: as §1, §2

`CNc1nc(-c2cccc(NC(=O)c3ccc(C(=O)OC)cc3)c2)c2cc(OC)c(OC)cc2n1` [Example 1, methyl N-[3-(6,7-dimethoxy-2-methylaminoquinazolin-4-yl)phenyl]terephthalamic acid]: the “Induction Ability compared to positive control (%) CYP1A1” value worked out at 0.1% in the data set with CYP1A1 (1 uM), 0.6% in the data set on CYP1A1 (3 uM) and 4.6% in the data set on CYP1A1 (10 uM). The results for the “Induction Ability compared to positive control (%) CYP1A2” value in the data set on CYP1A2 (1 uM), in the data set with CYP1A2 (3 uM) and in the data set with CYP1A2 (10 uM) were -0.1%, -0.7% and 2.5%, respectively. For the same compound, the results for the “Induction Ability compared to positive control (%) CYP3A4” value with CYP3A4 (1 uM), in the data set on CYP3A4 (3 uM) and in the data set on CYP3A4 (10 uM) were -2.4%, -3.4% and -4.0%, respectively.
`O=c1cc(-c2ccccc2)oc2ccc3ccccc3c12` [β-naphthoflavone, reference compound]: the “Induction Ability compared to positive control (%) CYP1A1” value in the data set on CYP1A1 (10 uM) was 100.0%.
